# Measurements reported in PubChem BioAssay (NCI).
#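 Interpolation was linear, between the two tested concentrations surrounding the appropriate level; five concentrations were tested over 48 hours in 96-well plates. The concentration for 50% growth inhibition is given as GI50. TGI denotes the concentration required for complete inhibition of growth.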
# What was measured:
# Assay in all cases: NCI-60 cell line screen, 48 h
# MCF7 breast = test system: MCF7 breast
# NCI-H226 lung = test system: NCI-H226 lung
# U251 CNS = test system: U251 CNS
# SF-539 CNS = test system: SF-539 CNS
# SF-268 CNS = test system: SF-268 CNS
# HOP-92 NSCLC = test system: HOP-92 NSCLC
# HL-60(TB) leukemia = test system: HL-60(TB) leukemia
# MALME-3M melanoma = test system: MALME-3M melanoma
# OVCAR-4 ovarian = test system: OVCAR-4 ovarian
# ACHN renal = test system: ACHN renal
# HCC-2998 colon = test system: HCC-2998 colon
# SR leukemia = test system: SR leukemia
# NCI-H460 lung = test system: NCI-H460 lung
# SW-620 colon = test system: SW-620 colon
# T-47D breast = test system: T-47D breast
# MDA-MB-435 = test system: MDA-MB-435
# HCT-15 colon = test system: HCT-15 colon
# CAKI-1 renal = test system: CAKI-1 renal
# UACC-62 melanoma = test system: UACC-62 melanoma
# HOP-62 NSCLC = test system: HOP-62 NSCLC
# LOX IMVI melanoma = test system: LOX IMVI melanoma
# SK-OV-3 ovarian = test system: SK-OV-3 ovarian
# OVCAR-5 ovarian = test system: OVCAR-5 ovarian
# NCI-H23 lung = test system: NCI-H23 lung
# K-562 leukemia = test system: K-562 leukemia
# KM12 colon = test system: KM12 colon
# NCI/ADR-RES ovarian = test system: NCI/ADR-RES ovarian
# RPMI-8226 leukemia = test system: RPMI-8226 leukemia
# HS 578T breast = test system: HS 578T breast
# OVCAR-8 ovarian = test system: OVCAR-8 ovarian
# BT-549 breast = test system: BT-549 breast
# UACC-257 melanoma = test system: UACC-257 melanoma
# RXF 393 renal = test system: RXF 393 renal
# HT29 colon = test system: HT29 colon
# UO-31 renal = test system: UO-31 renal
# PC-3 prostate = test system: PC-3 prostate
# SF-295 CNS = test system: SF-295 CNS
# A549 NSCLC = test system: A549 NSCLC
# M14 melanoma = test system: M14 melanoma
# TK-10 renal = test system: TK-10 renal
# IGROV1 ovarian = test system: IGROV1 ovarian
# SK-MEL-28 melanoma = test system: SK-MEL-28 melanoma
# NCI-H522 lung = test system: NCI-H522 lung
# A498 renal = test system: A498 renal
# SNB-19 CNS = test system: SNB-19 CNS
# EKVX NSCLC = test system: EKVX NSCLC
# MDA-MB-231 breast = test system: MDA-MB-231 breast
# COLO 205 colon = test system: COLO 205 colon
# OVCAR-3 ovarian = test system: OVCAR-3 ovarian
# CCRF-CEM leukemia = test system: CCRF-CEM leukemia
# 786-0 renal = test system: 786-0 renal
# SK-MEL-2 melanoma = test system: SK-MEL-2 melanoma
# MOLT-4 leukemia = test system: MOLT-4 leukemia
# SK-MEL-5 melanoma = test system: SK-MEL-5 melanoma
# DU-145 prostate = test system: DU-145 prostate
# HCT-116 colon = test system: HCT-116 colon
# SN12C renal = test system: SN12C renal
# SNB-75 CNS = test system: SNB-75 CNS
compound,measurement,setting,value
CN[C@@H](C)C(=O)N[C@H]1CCS[C@H]2CC(C)(C)[C@@H](C(=O)N[C@H]3c4ccccc4C[C@H]3OCC#CC#CCO[C@@H]3Cc4ccccc4[C@@H]3NC(=O)[C@H]3N4C(=O)[C@@H](NC(=O)[C@H](C)NC)CCS[C@H]4CC3(C)C)N2C1=O,GI50,MCF7 breast,5.87 µM
same,TGI,MCF7 breast,17.8 µM
same,GI50,NCI-H226 lung,> 50 µM
same,TGI,NCI-H226 lung,> 50 µM
same,GI50,U251 CNS,> 50 µM
same,TGI,U251 CNS,> 50 µM
same,GI50,SF-539 CNS,0.0118 µM
same,TGI,SF-539 CNS,2.4 µM
same,GI50,SF-268 CNS,41.9 µM
same,TGI,SF-268 CNS,> 50 µM
same,GI50,HOP-92 NSCLC,2.99 µM
same,TGI,HOP-92 NSCLC,14.3 µM
same,GI50,HL-60(TB) leukemia,0.0759 µM
same,TGI,HL-60(TB) leukemia,2.33 µM
same,GI50,MALME-3M melanoma,0.00951 µM
same,TGI,MALME-3M melanoma,0.115 µM
same,GI50,OVCAR-4 ovarian,0.0146 µM
same,TGI,OVCAR-4 ovarian,0.203 µM
same,GI50,ACHN renal,> 50 µM
same,TGI,ACHN renal,> 50 µM
same,GI50,HCC-2998 colon,19.5 µM
same,TGI,HCC-2998 colon,> 50 µM
same,GI50,SR leukemia,0.0264 µM
same,TGI,SR leukemia,> 22.1 µM
same,GI50,NCI-H460 lung,24.6 µM
same,TGI,NCI-H460 lung,> 50 µM
same,GI50,SW-620 colon,> 50 µM
same,TGI,SW-620 colon,> 50 µM
same,GI50,T-47D breast,29.9 µM
same,TGI,T-47D breast,> 50 µM
same,GI50,MDA-MB-435,> 23 µM
same,TGI,MDA-MB-435,> 50 µM
same,GI50,HCT-15 colon,> 50 µM
same,TGI,HCT-15 colon,> 50 µM
same,GI50,CAKI-1 renal,> 50 µM
same,TGI,CAKI-1 renal,> 50 µM
same,GI50,UACC-62 melanoma,> 50 µM
same,TGI,UACC-62 melanoma,> 50 µM
same,GI50,HOP-62 NSCLC,3.72 µM
same,TGI,HOP-62 NSCLC,> 50 µM
same,GI50,LOX IMVI melanoma,13.8 µM
same,TGI,LOX IMVI melanoma,> 50 µM
same,GI50,SK-OV-3 ovarian,< 0.005 µM
same,TGI,SK-OV-3 ovarian,< 0.005 µM
same,GI50,OVCAR-5 ovarian,> 50 µM
same,TGI,OVCAR-5 ovarian,> 50 µM
same,GI50,NCI-H23 lung,> 32 µM
same,TGI,NCI-H23 lung,> 50 µM
same,GI50,K-562 leukemia,12.9 µM
same,TGI,K-562 leukemia,> 33.4 µM
same,GI50,KM12 colon,30.5 µM
same,TGI,KM12 colon,> 50 µM
same,GI50,NCI/ADR-RES ovarian,> 50 µM
same,TGI,NCI/ADR-RES ovarian,> 50 µM
same,GI50,RPMI-8226 leukemia,2.25 µM
same,TGI,RPMI-8226 leukemia,> 36 µM
same,GI50,HS 578T breast,15.5 µM
same,TGI,HS 578T breast,> 50 µM
same,GI50,OVCAR-8 ovarian,35.9 µM
same,TGI,OVCAR-8 ovarian,> 50 µM
same,GI50,BT-549 breast,0.00762 µM
same,TGI,BT-549 breast,6.38 µM
same,GI50,UACC-257 melanoma,> 50 µM
same,TGI,UACC-257 melanoma,> 50 µM
same,GI50,RXF 393 renal,0.423 µM
same,TGI,RXF 393 renal,5.24 µM
same,GI50,HT29 colon,20.2 µM
same,TGI,HT29 colon,> 50 µM
same,GI50,UO-31 renal,> 50 µM
same,TGI,UO-31 renal,> 50 µM
same,GI50,PC-3 prostate,> 28.4 µM
same,TGI,PC-3 prostate,> 50 µM
same,GI50,SF-295 CNS,> 50 µM
same,TGI,SF-295 CNS,> 50 µM
same,GI50,A549 NSCLC,> 50 µM
same,TGI,A549 NSCLC,> 50 µM
same,GI50,M14 melanoma,> 50 µM
same,TGI,M14 melanoma,> 50 µM
same,GI50,TK-10 renal,> 50 µM
same,TGI,TK-10 renal,> 50 µM
same,GI50,IGROV1 ovarian,32.1 µM
same,TGI,IGROV1 ovarian,> 50 µM
same,GI50,SK-MEL-28 melanoma,> 46.6 µM
same,TGI,SK-MEL-28 melanoma,> 50 µM
same,GI50,NCI-H522 lung,7.38 µM
same,TGI,NCI-H522 lung,32 µM
same,GI50,A498 renal,> 50 µM
same,TGI,A498 renal,> 50 µM
same,GI50,SNB-19 CNS,> 50 µM
same,TGI,SNB-19 CNS,> 50 µM
same,GI50,EKVX NSCLC,> 38.9 µM
same,TGI,EKVX NSCLC,> 50 µM
same,GI50,MDA-MB-231 breast,< 0.005 µM
same,TGI,MDA-MB-231 breast,0.0239 µM
same,GI50,COLO 205 colon,25.2 µM
same,TGI,COLO 205 colon,> 50 µM
same,GI50,OVCAR-3 ovarian,12 µM
same,TGI,OVCAR-3 ovarian,> 43.9 µM
same,GI50,CCRF-CEM leukemia,0.0966 µM
same,TGI,CCRF-CEM leukemia,12.3 µM
same,GI50,786-0 renal,> 50 µM
same,TGI,786-0 renal,> 50 µM
same,GI50,SK-MEL-2 melanoma,0.174 µM
same,TGI,SK-MEL-2 melanoma,13.9 µM
same,GI50,MOLT-4 leukemia,9.86 µM
same,TGI,MOLT-4 leukemia,22.4 µM
same,GI50,SK-MEL-5 melanoma,4.75 µM
same,TGI,SK-MEL-5 melanoma,> 16.8 µM
same,GI50,DU-145 prostate,20.6 µM
same,TGI,DU-145 prostate,> 50 µM
same,GI50,HCT-116 colon,> 28.8 µM
same,TGI,HCT-116 colon,> 50 µM
same,GI50,SN12C renal,> 46.9 µM
same,TGI,SN12C renal,> 50 µM
same,GI50,SNB-75 CNS,1.99 µM
same,TGI,SNB-75 CNS,21.4 µM
